According to patent publication US20240216317A1, “COMPOSITION FOR PREVENTING, AMELIORATING OR TREATING INFLAMMATORY BOWEL DISEASE COMPRISING COMPOUND ISOLATED FROM ISODON EXCISUS AS EFFECTIVE COMPONENT” (HEALINNOLS INC., priority 2022, published 2024):

What was measured:
[1] = tested on: claudin1; assay: Immunofluorescence microscopy of tight junction-related protein claudin1 in intestinal epithelial wall model (DSS-treated Caco-2); type: cell-based, human; conditions: 3% DSS, 24 hours; Chemical formula 1 0.3, 1 or 3 μM; 5-ASA 500 μM; FIG. 4
Experimental: (§1) Caco-2 cell line (human intestinal epithelial cell line) and RAW 264.7 cell line, which is macrophage cells derived from mouse, were cultured at 37° C., 5% CO2 conditions by using DMEM (Dulbecco's Modified Eagle Medium, #11995065, Gibco) containing 10% FBS (fetal bovine serum, #16000044, Gibco) and 1% streptomycin/penicillin (#15140122, Gibco). For culturing the cells, the medium exchange was carried out every 2 to 3 days, and, once the cells are grown to the level of 80% in cell culture dish (#353003, Falcon), they were maintained by subculture.
(§2) The Caco-2 cells were adjusted to have density of 2×10^5 cells/ml. Suspension of the cells (0.5 ml) was aliquoted in apical side membrane phase of a transwell insert 12-well plate. To the basolateral side phase, 1.5 ml of culture medium were added. While replacing the medium with fresh one, once per 2 or 3 days, culture was continued for 21 days approximately, i.e., till to have cell division and suitable TEER (transepithelial electrical resistance) value of monolayer. […]
(§3) Thereafter, the cells were washed 3 times with 1×PBS for 5 minutes and treated for 5 minutes with Hoechst 33342 for staining the nucleus. […] After the mounting with ProLong™ Gold Antifade reagent, it was examined by confocal fluorescence microscopy.

[2] = tested on: ZO-1; assay: Immunofluorescence microscopy of tight junction-related protein ZO-1 in intestinal epithelial wall model (DSS-treated Caco-2); type: cell-based, human; conditions: 3% DSS, 24 hours; Chemical formula 1 0.3, 1 or 3 μM; 5-ASA 500 μM; FIG. 2
Experimental: as §1, §2, §3

SMILES	expression amount of claudin1 compared to DSS model group [1]	expression amount of ZO-1 compared to DSS model group [2]
COC(=O)C[C@H](OC(=O)/C=C/c1ccc(O)c(O)c1)c1ccc(O)c(O)c1 [Compound 1, 3-[3,4-dihydroxyphenyl]acrylic acid 1-[3,4-dihydroxyphenyl]-2-methoxycarbonylethyl ester]	statistically significantly higher	statistically significantly higher
Nc1ccc(O)c(C(=O)O)c1 [Compound 5-ASA, 5-aminosalicylic acid, reference compound]	statistically significantly higher	statistically significantly higher
